Results on two molecules are retold here after paper PMC3222680 (PLoS ONE, 2011).

Format in all cases: cell-based
One assay has as its target T1, αWT β-αY27′A GlyR (Homo sapiens, UniProt P23415+P48167, A275I/A296P/F268Y/G272Q/L286I/M270L/M271I/P292M/P300G/S295A/T277S/V266M/V273M/V282I/Y307A).
T1 construct: The α R218-Q219 and β R242-Q243 are also the joining sites for chimeras constructed between the ECD and TMD; expressed in transfected cells; host or cells: HEK293 cells (ATCC), pcDNA3.1zeo+
T1 sequence (P23415 29-449 isoform P23415-2): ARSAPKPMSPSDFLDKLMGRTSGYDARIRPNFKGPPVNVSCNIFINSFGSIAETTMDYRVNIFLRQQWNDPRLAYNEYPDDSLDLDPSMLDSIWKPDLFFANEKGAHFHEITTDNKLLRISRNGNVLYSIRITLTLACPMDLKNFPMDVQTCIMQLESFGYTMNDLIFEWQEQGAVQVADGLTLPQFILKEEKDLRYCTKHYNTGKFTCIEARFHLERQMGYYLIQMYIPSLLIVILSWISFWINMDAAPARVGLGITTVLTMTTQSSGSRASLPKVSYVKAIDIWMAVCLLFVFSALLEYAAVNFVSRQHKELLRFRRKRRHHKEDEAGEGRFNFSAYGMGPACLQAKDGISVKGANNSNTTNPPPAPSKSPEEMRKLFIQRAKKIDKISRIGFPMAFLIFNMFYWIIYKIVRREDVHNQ
T1 sequence (P48167+P23415 with tags, fused parts or gaps P48167:V266M/P48167:F268Y/P48167:M270L/P48167:M271I/P48167:G272Q/P48167:V273M/P48167:A275I/P48167:T277S/P48167:V282I/P48167:L286I/P48167:P292M/P48167:S295A/P48167:A296P/P48167:P300G/P23415:Y307A): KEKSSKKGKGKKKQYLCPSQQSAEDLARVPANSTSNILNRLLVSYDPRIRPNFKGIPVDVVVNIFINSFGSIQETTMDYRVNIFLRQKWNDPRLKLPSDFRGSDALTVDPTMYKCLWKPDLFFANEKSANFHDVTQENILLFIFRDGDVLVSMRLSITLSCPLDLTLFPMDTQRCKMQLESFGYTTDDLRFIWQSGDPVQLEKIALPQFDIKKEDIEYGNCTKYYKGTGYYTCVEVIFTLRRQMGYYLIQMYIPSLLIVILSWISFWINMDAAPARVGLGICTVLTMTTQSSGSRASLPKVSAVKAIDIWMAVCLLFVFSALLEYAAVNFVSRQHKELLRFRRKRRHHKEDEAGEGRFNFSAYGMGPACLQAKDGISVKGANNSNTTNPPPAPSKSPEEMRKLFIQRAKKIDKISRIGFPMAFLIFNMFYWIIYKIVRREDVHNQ
On the procedure:
(§1) The human GlyR α1 and β subunit cDNAs were subcloned into the pcDNA3.1zeo+ (Invitrogen) or pGEMHE [44] plasmid vectors for expression in HEK293 cells or Xenopus oocytes, respectively. Site-directed mutagenesis and chimera construction were performed using the QuickChange (Stratagene, La Jolla, CA, USA) mutagenesis and multiple-template-based sequential PCR protocols, respectively.
(§2) For the β-α chimeras used for determining the effect of hyperekplexia-mimicking mutations on α1 β GlyR channel function, the Thr at the M2 6′ position was replaced by a Cys. […] Through such a modification, picrotoxin resistance was used to distinguish the heteromeric α1 β-α GlyR from the homomeric α1 GlyR when the α1 and β-α subunits were co-expressed.
(§3) The effects of the hyperekplexia-mimicking mutations, K24′A, V25′A and Y27′A, were examined on GlyRs expressed in HEK293 cells (ATCC). Details of the HEK293 cell culture, GlyR expression and electrophysiological recording of the HEK293 cells are described elsewhere. Briefly, HEK293 cells were maintained in DMEM supplemented with 10% fetal bovine serum. Cells were transfected using a calcium phosphate precipitation protocol. When co-transfecting the α1 together with the β or any other chimera subunits, their respective cDNAs were combined in a ratio of 1∶10. In addition, the pEGFP-N1 (Clontech) was co-transfected to facilitate identifying the transfected cells. […] Cells were treated with external Ringer's solution and internal CsCl solution [30]. Cells were voltage-clamped at −40 mV. When the heteromeric GlyRs were expressed, the picrotoxin sensitivity was tested to confirm that the majority of receptors are heteromers, [30].
(§4) Results are expressed as mean±standard error of the mean of three or more independent experiments. […] Statistical significance was determined using the Student's t-test.

Another assay has as its target T2, αWT β-αWT GlyR (Homo sapiens, UniProt P23415+P48167, A275I/A296P/F268Y/G272Q/L286I/M270L/M271I/P292M/P300G/S295A/T277S/V266M/V273M/V282I).
T2 construct: The α R218-Q219 and β R242-Q243 are also the joining sites for chimeras constructed between the ECD and TMD; expressed in transfected cells; host or cells: HEK293 (ATCC)
T2 sequence (P23415 29-449 isoform P23415-2): T1 sequence (P23415 29-449 isoform P23415-2)
T2 sequence (P48167+P23415 with tags, fused parts or gaps P48167:V266M/P48167:F268Y/P48167:M270L/P48167:M271I/P48167:G272Q/P48167:V273M/P48167:A275I/P48167:T277S/P48167:V282I/P48167:L286I/P48167:P292M/P48167:S295A/P48167:A296P/P48167:P300G): T1 sequence (P48167+P23415 with tags, fused parts or gaps P48167:V266M/P48167:F268Y/P48167:M270L/P48167:M271I/P48167:G272Q/P48167:V273M/P48167:A275I/P48167:T277S/P48167:V282I/P48167:L286I/P48167:P292M/P48167:S295A/P48167:A296P/P48167:P300G/P23415:Y307A) with A303Y
On the procedure: as §1, §2, §3, §4

The target of the next assay is T3, αV25′A β-αWT GlyR (Homo sapiens, UniProt P23415+P48167, V305A).
T3 construct: The α R218-Q219 and β R242-Q243 are also the joining sites for chimeras constructed between the ECD and TMD; expressed in transfected cells; host or cells: HEK293 (ATCC)
T3 sequence (P23415 29-449 isoform P23415-2 V305A): T1 sequence (P23415 29-449 isoform P23415-2) with V277A
T3 sequence (P48167+P23415 with tags, fused parts or gaps P48167:V266M/P48167:F268Y/P48167:M270L/P48167:M271I/P48167:G272Q/P48167:V273M/P48167:A275I/P48167:T277S/P48167:V282I/P48167:L286I/P48167:P292M/P48167:S295A/P48167:A296P/P48167:P300G): T1 sequence (P48167+P23415 with tags, fused parts or gaps P48167:V266M/P48167:F268Y/P48167:M270L/P48167:M271I/P48167:G272Q/P48167:V273M/P48167:A275I/P48167:T277S/P48167:V282I/P48167:L286I/P48167:P292M/P48167:S295A/P48167:A296P/P48167:P300G/P23415:Y307A) with A303Y
How it is done: as §1, §2, §3, §4

Setting [1] is: αWT β-αY27′A, HEK293, with glycine at EC50 of α1 homomer.
Setting [2] is: αWT β-αWT, HEK293, with glycine at EC50 of α1 homomer.
Setting [3] is: αV25′A β-αWT, HEK293, with glycine at EC50 of α1 homomer.

Numbering of substitutions follows the chain as printed.

With `NCC(=O)O` [glycine], the figures for the Imax on αWT β-αY27′A GlyR, at αWT β-αWT GlyR and on αV25′A β-αWT GlyR were 6.5±1.6 nA, 8.0±2.3 nA and 8.9±1.5 nA, respectively. Further, the nH is 2.1±0.6 on αWT β-αY27′A GlyR, 2.4±0.4 at αWT β-αWT GlyR and 1.7±0.3 at αV25′A β-αWT GlyR.

With picrotoxin [PTX], the figures for the “10uM PTX inhibition (%)” value at αWT β-αY27′A GlyR (setting [1]), at αWT β-αWT GlyR (setting [2]) and on αV25′A β-αWT GlyR (setting [3]) were 22±7%, 8.5±1.9% and 12.0±2.5%, respectively. The “100uM PTX inhibition (%)” value on αWT β-αY27′A GlyR (setting [1]) is 48±4%; on αWT β-αWT GlyR (setting [2]), 26±2%; on αV25′A β-αWT GlyR (setting [3]), 37±6%.
